Data from paper PMC11571207, “Stereorandomized Oncocins with Preserved Ribosome Binding and Antibacterial Activity” (Journal of Medicinal Chemistry, 2024).
Values after ≈ are worked out from the molar mass of the structure shown. Read-outs that look alike come from different tables or passages of the source. Non-standard residues stand in square brackets, D forms with d. Residues, ends and D or L forms follow the SMILES beside them.

What was measured:
[1] = system: P. aeruginosa PA14 4.18 (pmrB); conditions: for MIC P. aeruginosa PA14 4.18: supplement CSV
E. cloacae = test: microbe, parasite or virus in culture; conditions: for MIC E. cloacae: supplement CSV
Method: (§1) Minimum inhibitory concentration assay
(§2) Antimicrobial activity was assayed against P. aeruginosa PAO1, K. pneumoniae NCTC418, E. coli W3110, A. baumannii ATCC 19606, methicillin-resistant S. aureus COL (MRSA), and for selected peptides on P. aeruginosa PA14 and the polymyxin-B-resistant derivative PA14 2P4, as well as the clinical isolates ZEM-1A and ZEM9A, K. pneumoniae OXA-48, S. aureus Newman, Enterobacter cloacae and Burkholderia cenocepacia. The minimal inhibitory concentration (MIC) was determined by using broth microdilution method. A colo ny of bacteria was picked and grown in Luria-Bertani (LB) medium overnight at 37°C. For E. coli BW25113 sbmA::kan the medium was supplemented with 25 mg/L of kanamycin. The next day, the culture was then regrown in LB medium to log phase (OD600 = 0.6 to 0.8), which lasted approximately 4 h, and diluted to an OD600 of 0.022 in the desired medium. Stock solutions of 1 mg/mL of the samples were prepared in sterilized milliQ water and diluted to the beginning concentration of 64 μg/mL in 300 μL Mueller Hinton (MH)-medium. The diluted samples were added to first well of 96-well microtiter plate (TPP, untreated, Faust Laborbedarf, AG, Schaffhausen) and diluted serially by ½. Finally, 4 μL of the bacterial suspension was inoculated into the sample solutions (150 μL/well) with a final inoculation of about 5∙10^5 CFU/mL. The plates were then incubated at 37°C for 15-18h. For each assay, sterility (broth only) and growth control (broth with bacterial inoculum, without antibiotics) were checked with two columns in the plate. The next day, 15 μL of 3-(4,5-dimethylthiazol-2-yl)-2,5-diphenyltetrazolium bromide (MTT) was added to each well of the plate, such a way that MIC was defined as the lowest concentration of the peptide that inhibited visible growth of the tested

[2] = system: P. aeruginosa PA14 2P4 (pmrB); test: microbe, parasite or virus in culture; conditions: for MIC P. aeruginosa PA14 2P4: supplement CSV
Method: as §1, §2

K. pneumoniae OXA-48 = test: microbe, parasite or virus in culture; conditions: for MIC K. pneumoniae OXA-48: supplement CSV
Method: as §1, §2

P. aeruginosa ZEM9A = test: microbe, parasite or virus in culture; conditions: for MIC P. aeruginosa ZEM9A: supplement CSV
Method: as §1, §2

P. aeruginosa ZEM-1A = test: microbe, parasite or virus in culture; conditions: for MIC P. aeruginosa ZEM-1A: supplement CSV
Method: as §1, §2

P. aeruginosa PA14 = test: microbe, parasite or virus in culture; conditions: for MIC P. aeruginosa PA14: supplement CSV
Method: as §1, §2

human red blood cells = conditions: red cells of human, 6 h
A. baumannii ATCC19606 = test: microbe, parasite or virus in culture
How it was run: (§3)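 Read-out was visible growth after MTT addition, the MIC being the lowest inhibitory peptide concentration. Bacteria grown to log phase in LB were exposed in MH medium to peptide from 64 μg/mL in twofold dilutions for 15-18h at 37°C.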

E. coli W3110 = test: microbe, parasite or virus in culture; conditions: for MIC E. coli W3110: supplement CSV
How it was run: as §3

K. pneumoniae NCTC 418 = test: microbe, parasite or virus in culture; conditions: supplement CSV
How it was run: as §3

S. aureus COL (MRSA) = test: microbe, parasite or virus in culture; conditions: for MIC S. aureus COL (MRSA): supplement CSV
How it was run: as §3

P. aeruginosa PAO1 = test: microbe, parasite or virus in culture; conditions: supplement CSV
How it was run: as §3

[3] = system: P. aeruginosa PA14 4.13 (phoQ); conditions: for MIC P. aeruginosa PA14 4.13: supplement CSV
[4] = target: chaperone DnaK (His-tagged) (UniProt P0A6Y8); test: MST; 16 two-fold dilutions of L-Onc from a maximum of 100 μM, mixed 1:1 with 40 nM His-Tag-labeled DnaK; MST buffer (50 mM TRIS, 150 mM NaCl, 10 mM MgCl2, Tween 20 0.05%); Monolith NT.115; apparent
[5] = polymyxin B resistant strain, 12.5% MHB pH 7.4, 16–20 h at 37 °C
[6] = polymyxin B resistant strain, full MHB pH 7.4, 16–20 h at 37 °C

chaperone DnaK (His-tagged), sequence (P0A6Y8 whole entry): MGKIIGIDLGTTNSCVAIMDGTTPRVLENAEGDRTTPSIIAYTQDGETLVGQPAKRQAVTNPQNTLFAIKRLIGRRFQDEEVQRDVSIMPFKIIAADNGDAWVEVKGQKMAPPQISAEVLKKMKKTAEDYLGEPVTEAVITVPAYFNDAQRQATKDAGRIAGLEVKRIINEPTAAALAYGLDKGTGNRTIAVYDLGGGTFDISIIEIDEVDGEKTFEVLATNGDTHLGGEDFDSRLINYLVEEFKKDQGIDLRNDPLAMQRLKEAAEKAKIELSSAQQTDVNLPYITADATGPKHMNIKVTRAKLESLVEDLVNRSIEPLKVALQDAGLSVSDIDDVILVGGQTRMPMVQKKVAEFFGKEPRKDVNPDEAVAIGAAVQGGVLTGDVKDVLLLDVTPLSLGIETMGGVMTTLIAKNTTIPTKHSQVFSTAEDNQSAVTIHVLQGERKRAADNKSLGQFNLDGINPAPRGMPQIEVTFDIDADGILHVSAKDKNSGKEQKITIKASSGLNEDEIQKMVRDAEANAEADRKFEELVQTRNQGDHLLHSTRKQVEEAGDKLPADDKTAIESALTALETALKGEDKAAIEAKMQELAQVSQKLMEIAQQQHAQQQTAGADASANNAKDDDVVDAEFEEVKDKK

## CC(C)C[C@H](NC(=O)[C@H](CC(C)C)NC(=O)[C@H](CC(C)C)NC(=O)[C@@H](CCCCN)NC(=O)[C@H](CC(C)C)NC(=O)[C@H](CC(C)C)NC(=O)[C@@H](CCCCN)NC(=O)[C@H](CC(C)C)NC(=O)[C@H](CC(C)C)NC(=O)[C@@H](CCCCN)NC(=O)[C@H](N)CCCCN)C(N)=O [ln69, reference compound] (H-[dK][dK]LL[dK]LL[dK]LLL-NH2)
[1]; [5]
  MIC P. aeruginosa PA14 4.18 (pmrB), 12.5% MHB: 2 µg/mL (≈ 1.51 µM)
[1]; [6]
  MIC P. aeruginosa PA14 4.18 (pmrB), full MHB: 16 µg/mL (≈ 12.1 µM)
[1]; 12.5% MH pH 7.4
  MIC P. aeruginosa PA14 4.18: 2 µg/mL (≈ 1.51 µM)
[1]; full MH pH 7.4
  MIC P. aeruginosa PA14 4.18: 16 µg/mL (≈ 12.1 µM)
E. cloacae; 12.5% MHB pH 7.4, 16–20 h at 37 °C
  MIC E. cloacae, 12.5% MHB: 2 µg/mL (≈ 1.51 µM)
E. cloacae; full MHB pH 7.4, 16–20 h at 37 °C
  MIC E. cloacae, full MHB: 4 µg/mL (≈ 3.03 µM)
E. cloacae; 12.5% MH pH 7.4
  MIC E. cloacae: 2 µg/mL (≈ 1.51 µM)
E. cloacae; full MH pH 7.4
  MIC E. cloacae: 4 µg/mL (≈ 3.03 µM)
[2]; [5]
  MIC P. aeruginosa PA14 2P4 (pmrB), 12.5% MHB: 4 µg/mL (≈ 3.03 µM)
[2]; [6]
  MIC P. aeruginosa PA14 2P4 (pmrB), full MHB: 32 µg/mL (≈ 24.2 µM)
[2]; 12.5% MH pH 7.4
  MIC P. aeruginosa PA14 2P4: 4 µg/mL (≈ 3.03 µM)
[2]; full MH pH 7.4
  MIC P. aeruginosa PA14 2P4: 32 µg/mL (≈ 24.2 µM)
K. pneumoniae OXA-48; carbapenem-resistant, 12.5% MHB pH 7.4, 16–20 h at 37 °C
  MIC K. pneumoniae OXA-48, 12.5% MHB: 4/4 μg/mL
K. pneumoniae OXA-48; carbapenem-resistant, full MHB pH 7.4, 16–20 h at 37 °C
  MIC K. pneumoniae OXA-48, full MHB: 4/4 μg/mL
K. pneumoniae OXA-48; 12.5% MH pH 7.4
  MIC K. pneumoniae OXA-48: 4 µg/mL (≈ 3.03 µM)
K. pneumoniae OXA-48; full MH pH 7.4
  MIC K. pneumoniae OXA-48: 4 µg/mL (≈ 3.03 µM)
P. aeruginosa ZEM9A; clinical isolate, full MHB pH 7.4, 16–20 h at 37 °C
  MIC P. aeruginosa ZEM9A, full MHB: 4 to 8 µg/mL
P. aeruginosa ZEM9A; 12.5% MH pH 7.4
  MIC P. aeruginosa ZEM9A: 2 µg/mL (≈ 1.51 µM)
P. aeruginosa ZEM9A; full MH pH 7.4
  MIC P. aeruginosa ZEM9A: 4 to 8 µg/mL
P. aeruginosa ZEM-1A; clinical isolate, 12.5% MHB pH 7.4, 16–20 h at 37 °C, cells marked c: single measurement (in duplicates)
  MIC P. aeruginosa ZEM-1A, 12.5% MHB: 4 µg/mL (≈ 3.03 µM)
P. aeruginosa ZEM-1A; clinical isolate, full MHB pH 7.4, 16–20 h at 37 °C, cells marked c: single measurement (in duplicates)
  MIC P. aeruginosa ZEM-1A, full MHB: 1 µg/mL (≈ 0.757 µM)
P. aeruginosa ZEM-1A; 12.5% MH pH 7.4
  MIC P. aeruginosa ZEM-1A: 4 µg/mL (≈ 3.03 µM)
P. aeruginosa ZEM-1A; full MH pH 7.4
  MIC P. aeruginosa ZEM-1A: 1 µg/mL (≈ 0.757 µM)
P. aeruginosa PA14; 12.5% MHB pH 7.4, 16–20 h at 37 °C, two different duplicate MIC determinations
  MIC P. aeruginosa PA14, 12.5% MHB: 2/2 μg/mL
P. aeruginosa PA14; full MHB pH 7.4, 16–20 h at 37 °C, two different duplicate MIC determinations
  MIC P. aeruginosa PA14, full MHB: 2/2 μg/mL
P. aeruginosa PA14; 12.5% MH pH 7.4
  MIC P. aeruginosa PA14: 2 µg/mL (≈ 1.51 µM)
P. aeruginosa PA14; full MH pH 7.4
  MIC P. aeruginosa PA14: 2 µg/mL (≈ 1.51 µM)
Human red blood cells
  MHC human red blood cells: 1000 µg/mL
A. baumannii ATCC19606; A. baumannii ATCC19606, 12.5% Müller–Hinton medium, 16–20 h at 37 °C
  MIC A. baumannii, 12.5% MHB: 2 µg/mL (≈ 1.51 µM)
A. baumannii ATCC19606; A. baumannii ATCC19606, full Müller–Hinton medium, 16–20 h at 37 °C
  MIC A. baumannii, Full MHB: 2 to 4 µg/mL
A. baumannii ATCC19606; supplement CSV, 12.5% MH pH 7.4
  MIC A. baumannii ATCC19606: 2 µg/mL (≈ 1.51 µM)
E. coli W3110; E. coli W3110, 12.5% Müller–Hinton medium, 16–20 h at 37 °C, broth microdilution
  MIC E. coli, 12.5% MHB: 2 µg/mL (≈ 1.51 µM)
E. coli W3110; E. coli W3110, full Müller–Hinton medium, 16–20 h at 37 °C, broth microdilution
  MIC E. coli, Full MHB: 4 µg/mL (≈ 3.03 µM)
E. coli W3110; 12.5% MH pH 7.4
  MIC E. coli W3110: 2 µg/mL (≈ 1.51 µM)
E. coli W3110; full MH pH 7.4
  MIC E. coli W3110: 4 µg/mL (≈ 3.03 µM)
K. pneumoniae NCTC 418; 12.5% MH pH 7.4
  MIC K. pneumoniae NCTC418: 4 µg/mL (≈ 3.03 µM)
K. pneumoniae NCTC 418; full MH pH 7.4
  MIC K. pneumoniae NCTC418: 8 µg/mL (≈ 6.05 µM)
S. aureus COL (MRSA); S. aureus COL (MRSA), 12.5% Müller–Hinton medium, 16–20 h at 37 °C
  MIC S. aureus, 12.5% MHB: 2 µg/mL (≈ 1.51 µM)
S. aureus COL (MRSA); S. aureus COL (MRSA), full Müller–Hinton medium, 16–20 h at 37 °C
  MIC S. aureus, Full MHB: 16 µg/mL (≈ 12.1 µM)
S. aureus COL (MRSA); 12.5% MH pH 7.4
  MIC S. aureus COL (MRSA): 2 µg/mL (≈ 1.51 µM)
S. aureus COL (MRSA); full MH pH 7.4
  MIC S. aureus COL (MRSA): 16 µg/mL (≈ 12.1 µM)
P. aeruginosa PAO1; 12.5% MH pH 7.4
  MIC P. aeruginosa PAO1: 2 µg/mL (≈ 1.51 µM)
P. aeruginosa PAO1; full MH pH 7.4
  MIC P. aeruginosa PAO1: 4 µg/mL (≈ 3.03 µM)
[3]; [5]
  MIC P. aeruginosa PA14 4.13 (phoQ), 12.5% MHB: 2 µg/mL (≈ 1.51 µM)
[3]; [6]
  MIC P. aeruginosa PA14 4.13 (phoQ), full MHB: 4 µg/mL (≈ 3.03 µM)
[3]; 12.5% MH pH 7.4
  MIC P. aeruginosa PA14 4.13: 2 µg/mL (≈ 1.51 µM)
[3]; full MH pH 7.4
  MIC P. aeruginosa PA14 4.13: 4 µg/mL (≈ 3.03 µM)

## oncocin (L-oncocin) (peptide)
[4]
  Kd: 30 µM
